Test results: patent publication US7211599B2, “Use of etodolac to treat hyperplasia” (The Regents of the University of California, priority 2002, dated 2007)
“And” between values parts separate entries of the source, which are not always exact repeats. Equal values may be shown once. Marks after values point to notes of the source that are not given here.

Assays:
[1] = cited from earlier work
[2] = tested on: prostaglandin synthetase; details: Demerson et al. 1983; cited from earlier work
[3] = tested on: rats with adjuvant polyarthritis; details: Demerson et al. 1983; cited from earlier work
[4] = tested on: transgenic adenocarcinoma mouse prostate (TRAMP) mouse; assay: TRAMP animal model: average weight of dissected prostate lobes; format: in vivo
Method: (§1) The transgenic adenocarcinoma mouse prostate (TRAMP) mouse, was used to evaluate the effect of R-etodolac on prostate cancer progression. The etodolac was compounded into the diet at 312 ppm (low dose) and 1250 ppm (high dose) and the animals were treated for 18 weeks. At necoscopy, the urogenital system was removed and weighed. The prostate lobes, seminal vesicles, lungs, liver, and periaortic lymph nodes were preserved and sectioned for histological evaluation and graded on a 1-6 scale for degree of hyperplasia/neoplasia/carcinoma.

[5] = tested on: transgenic adenocarcinoma mouse prostate (TRAMP) mouse; assay: TRAMP animal model: histopathological evaluation of the prostate (grade 1-6); format: in vivo; set-up: key to Average mouse Staging / Overall Mean (staging of group) / Histopathological grade, Lateral prostate: histological grade on 1-6 scale of hyperplasia/neoplasia/carcinoma; details: for Overall Mean (staging of group): TRAMP mice; for Average mouse Staging: mean of lobe grades
Method: as §1

[6] = cited from earlier work; remark: listed apart in the source
[7] = tested on: hyperplastic cells; assay: Activity against hyperplastic cells; details: compared with S(+) enantiomer
Excerpt: The pharmacokinetics of etodolac have been extensively reviewed by D. R. Brocks et al., Clin. Pharmacokinet., 26, 259 (1994). Etodolac is marketed as the racemate.

[8] = after a 200 mg dose in six elderly patients
[9] = TRAMP mice, High Dose (1250 ppm in diet), 18 weeks, average ± standard deviation
[10] = TRAMP mice, Low Dose (312 ppm in diet), 18 weeks, average ± standard deviation
[11] = TRAMP mice treated with R-etodolac

## CCc1cccc2c3c([nH]c12)C(CC)(CC(=O)O)OCC3 (racemic) [etodolac, 1,8-diethyl-1,3,4,9-tetrahydro[3,4-6]indole-1-acetic acid]
[1]; racemic mixture
  Elimination half-life: 6 to 8 h

## CCc1cccc2c3c([nH]c12)[C@](CC)(CC(=O)O)OCC3 (single isomer, unassigned) [S(+)-enantiomer of etodolac, reference compound]
[1]; [8]
  Maximum concentration relative to R-enantiomer: 5 fold lower
[2]
  Prostaglandin synthetase inhibitory activity: almost all
[3]
  Anti-inflammatory activity (reduction in paw volume): almost all of the anti-inflammatory activity of the racemate

## CCc1cccc2c3c([nH]c12)[C@@](CC)(CC(=O)O)OCC3 [R-etodolac]
[1]; [8]
  Maximum plasma concentration: about 33 μM
[1]; in plasma after administration of RS-etodolac, Brocks et al. 1994
  Plasma concentrations of R-enantiomer relative to S-enantiomer: about 10 fold
[4]; [9]
  Average weigh (g) Anterior Prostate: 0.076 ± 0.012 g
  Average weigh (g) Dorsal Prostate: 0.053 ± 0.013 g
  Average weigh (g) Lateral Prostate: 0.016 ± 0.003 g
  Average weigh (g) Ventral prostate: 0.014 ± 0.001 g
  Total Weigh average: 0.160 ± 0.022 g
[4]; [10]
  Average weigh (g) Anterior Prostate: 0.062 ± 0.033 g
  Average weigh (g) Dorsal Prostate: 0.062 ± 0.027 g
  Average weigh (g) Lateral Prostate: 0.015 ± 0.001 g
  Average weigh (g) Ventral prostate: 0.024 ± 0.017 g
[4]; TRAMP mice, highest dose
  Overall size of the prostates: reduction of the overall size of the prostates
[4]; treated mice compared to untreated mice
  Overall size of the prostates: reduces the overall size of the prostates
[5]; [11]
  Effects in any other tissues: No other effects in any other tissues were observed
  Progression of the disease (histological analysis): maintaining the animals in a pre-cancerous stage
[5]; High dose group (1250 ppm in diet), 18 weeks, statistically significant from control group, p < 0.005
  Overall Mean (staging of group): 3.3*
[5]; Low dose group (312 ppm in diet), 18 weeks
  Overall Mean (staging of group): 4.3
[5]; individual TRAMP mice, High dose (1250 ppm in diet), 18 weeks
  Average mouse Staging: 3.8 and 3.3 (3×) and 3.5 and 3.0
[5]; individual TRAMP mice, Low dose (312 ppm in diet), 18 weeks, grade 1-6
  Histopathological grade, Lateral prostate: 3.5
[5]; individual TRAMP mice, Low dose (312 ppm in diet), 18 weeks
  Average mouse Staging: 4.0 (2×) and 5.5 and 3.6 and 4.5 and 6.0
[6]
  Conversion to the S(+) enantiomer in vivo: not converted significantly
[7]
  Activity against hyperplastic cells: potent activity against hyperplastic cells that is at least equivalent to that of the S(+) enantiomer
[3]
  Anti-inflammatory activity (reduction in paw volume): No anti-inflammatory activity was discernible
